{"source": "BindingDB's records for doi:10.1016/s0960-894x(00)00660-0", "about": "(Clinical Research Institute of Montreal, 2001)", "key": {"[1]": {"test": "Tested for binding affinity towards Opioid receptor delta 1 in rat and guinea pig brain membrane binding assays"}, "[2]": {"test": "Tested for binding affinity towards Opioid receptor mu 1 in rat and guinea pig brain membrane binding assays"}}, "note": "pKi: −log10 of the molar value. Peptide text beside a SMILES is read from it. * marks the point of attachment. X1 = Cc1cc(O)cc(C)c1C[C@H](C)C(=O)*"}
{"smiles": "Cc1cc(O)cc(C)c1C[C@H](C)C(=O)N[C@@H](C)C(=O)NCC(=O)N[C@@H](Cc1ccccc1)C(=O)N[C@@H](CC(C)C)C(N)=O", "note": "[(S)-2-[(S)-2-(2-{(S)-2-[(S)-3-(4-Hydroxy-2,6-dimethyl-phenyl)-2-methyl-propionylamino]-propionylamino}-acetylamino)-3-phenyl-propionylamino]-4-methyl-pentanoic acid amide] (X1-AGFL-NH2)", "values": [{"measurement": "pKi", "setting": "[1]", "value": 7.92}, {"measurement": "pKi", "setting": "[2]", "value": 6.72}]}
